Test results: PubChem BioAssay AID1919015 (Molecular Pharmacology Branch, DTP, NCI, 2023)

System: OVCAR-5 complex spheroids with HUVEC/MSC, viability, % test/control
Test: Anticancer human tumor OVCAR-5 cell line growth inhibition [AhR];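 also: spheroids exposed to compounds for 7 days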;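 as to viability, T/C: 100% = DMSO vehicle control wells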
Settings: for IC50: curve of first compound; for viability, T/C: stronger effect = lower value
Outline: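 Agents were dosed in half-log steps down from roughly clinical Cmax, or from 10 microM where Cmax was unknown, alone and with AhR antagonists. Read-out: percent test/control growth of tumor spheroids containing HUVEC and MSC stromal cells.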

[1] = second compound 0.1 µM, first compound 0.0316 µM
[2] = second compound 0.1 µM, first compound 0.1 µM
[3] = second compound 0.1 µM, first compound 0.316 µM
[4] = second compound 0.1 µM, first compound 1 µM
[5] = second compound 0.1 µM, first compound 3.16 µM
[6] = second compound 0.1 µM, first compound 10 µM
[7] = second compound 0.316 µM, first compound 0.0316 µM
[8] = second compound 0.316 µM, first compound 0.1 µM
[9] = second compound 0.316 µM, first compound 0.316 µM
[10] = second compound 0.316 µM, first compound 1 µM
[11] = second compound 0.316 µM, first compound 3.16 µM
[12] = second compound 0.316 µM, first compound 10 µM
[13] = second compound 1 µM, first compound 0.0316 µM
[14] = second compound 1 µM, first compound 0.1 µM
[15] = second compound 1 µM, first compound 0.316 µM
[16] = second compound 1 µM, first compound 1 µM
[17] = second compound 1 µM, first compound 3.16 µM
[18] = second compound 1 µM, first compound 10 µM
[19] = second compound 3.16 µM, first compound 0.0316 µM
[20] = second compound 3.16 µM, first compound 0.1 µM
[21] = second compound 3.16 µM, first compound 0.316 µM
[22] = second compound 3.16 µM, first compound 1 µM
[23] = second compound 3.16 µM, first compound 3.16 µM
[24] = second compound 3.16 µM, first compound 10 µM
[25] = second compound 10 µM, first compound 0.0316 µM
[26] = second compound 10 µM, first compound 0.1 µM
[27] = second compound 10 µM, first compound 0.316 µM
[28] = second compound 10 µM, first compound 1 µM
[29] = second compound 10 µM, first compound 3.16 µM
[30] = second compound 10 µM, first compound 10 µM
[31] = second compound 0.1 µM, first compound 0.00316 µM
[32] = second compound 0.1 µM, first compound 0.01 µM
[33] = second compound 0.316 µM, first compound 0.00316 µM
[34] = second compound 0.316 µM, first compound 0.01 µM
[35] = second compound 1 µM, first compound 0.00316 µM
[36] = second compound 1 µM, first compound 0.01 µM
[37] = second compound 3.16 µM, first compound 0.00316 µM
[38] = second compound 3.16 µM, first compound 0.01 µM
[39] = second compound 10 µM, first compound 0.00316 µM
[40] = second compound 10 µM, first compound 0.01 µM

Compound	IC50 (second compound 0.1 µM)	IC50 (second compound 0.316 µM)	IC50 (second compound 1 µM)	IC50 (second compound 3.16 µM)	IC50 (second compound 10 µM)	viability, T/C [1]	viability, T/C [2]	viability, T/C [3]	viability, T/C [4]	viability, T/C [7]	viability, T/C [8]	viability, T/C [9]	viability, T/C [10]	viability, T/C [13]	viability, T/C [14]	viability, T/C [15]	viability, T/C [19]	viability, T/C [20]	viability, T/C [25]	viability, T/C [26]	also measured
CC(C)c1c(-c2ccccc2)nc2c(C#N)c[nH]n2c1=O + Cc1ccccc1N=Nc1ccc(NC(=O)c2ccnn2C)c(C)c1	> 10000 nM	> 10000 nM	> 10000 nM	> 10000 nM	> 10000 nM	104%	102%	101%	101%	105%	111%	106%	103%	112%	109%	109%	112%	112%	108%	110%	viability, T/C [5]: 104%; viability, T/C [6]: 106%; viability, T/C [11]: 106%; viability, T/C [12]: 104%; viability, T/C [16]: 106%; viability, T/C [17]: 106%; viability, T/C [18]: 111%; viability, T/C [21]: 111%; viability, T/C [22]: 108%; viability, T/C [23]: 111%; viability, T/C [24]: 114%; viability, T/C [27]: 108%; viability, T/C [28]: 107%; viability, T/C [29]: 104%; viability, T/C [30]: 104%
COc1ccc([C@@H](O)c2cc(-c3ncnc4cc(N5CCOCC5)ccc34)c(F)cc2Cl)nn1 + Cc1ccccc1N=Nc1ccc(NC(=O)c2ccnn2C)c(C)c1	2910 nM	2980 nM	3750 nM	4540 nM	3230 nM	102%	101%	95.5%	76.3%	104%	102%	97.5%	76.8%	109%	107%	99.5%	113%	106%	103%	98.9%	viability, T/C [5]: 48.4%; viability, T/C [6]: 24.1%; viability, T/C [11]: 49.1%; viability, T/C [12]: 27.6%; viability, T/C [16]: 87.5%; viability, T/C [17]: 53.5%; viability, T/C [18]: 26%; viability, T/C [21]: 98.9%; viability, T/C [22]: 85.1%; viability, T/C [23]: 57.6%; viability, T/C [24]: 31.6%; viability, T/C [27]: 96.3%; viability, T/C [28]: 76.7%; viability, T/C [29]: 51.2%; viability, T/C [30]: 22.8%
CC[C@@]1(O)C(=O)OCc2c1cc1n(c2=O)Cc2cc3c(CN(C)C)c(O)ccc3nc2-1 + Cc1cncc(-c2nc(NCCc3c[nH]c4ccccc34)c3ncn(C(C)C)c3n2)c1	> 100 nM	> 100 nM	> 100 nM	25.3 nM	< 0.316 nM	49.3%	52.3%	–	–	50%	52.8%	–	–	48.4%	55.8%	–	43.4%	50.5%	6.78%	14.5%	viability, T/C (second compound 0.1 µM, first compound 0.000316 µM): 100%; viability, T/C (second compound 0.1 µM, first compound 0.001 µM): 105%; viability, T/C [31]: 97.4%; viability, T/C [32]: 87%; viability, T/C (second compound 0.316 µM, first compound 0.000316 µM): 97.9%; viability, T/C (second compound 0.316 µM, first compound 0.001 µM): 100%; viability, T/C [33]: 92.7%; viability, T/C [34]: 82.2%; viability, T/C (second compound 1 µM, first compound 0.000316 µM): 93.6%; viability, T/C (second compound 1 µM, first compound 0.001 µM): 91.6%; viability, T/C [35]: 90.1%; viability, T/C [36]: 79.9%; viability, T/C (second compound 3.16 µM, first compound 0.000316 µM): 79.2%; viability, T/C (second compound 3.16 µM, first compound 0.001 µM): 79.5%; viability, T/C [37]: 77.2%; viability, T/C [38]: 62.9%; viability, T/C (second compound 10 µM, first compound 0.000316 µM): 22.3%; viability, T/C (second compound 10 µM, first compound 0.001 µM): 24.9%; viability, T/C [39]: 26.9%; viability, T/C [40]: 16.5%
COc1cc(C2c3cc4c(cc3C(OC3OC5COC(C)OC5C(O)C3O)C3COC(=O)C23)OCO4)cc(OC)c1O (stereo not given) + Cc1cncc(-c2nc(NCCc3c[nH]c4ccccc34)c3ncn(C(C)C)c3n2)c1	2680 nM	2940 nM	2360 nM	909 nM	< 31.6 nM	97.2%	97.1%	90.8%	68.8%	97.1%	93.3%	86%	67.7%	90%	91.6%	79.7%	79.8%	80.1%	9.11%	9.43%	viability, T/C [5]: 47.8%; viability, T/C [6]: 36.1%; viability, T/C [11]: 49%; viability, T/C [12]: 37.6%; viability, T/C [16]: 62.9%; viability, T/C [17]: 46.1%; viability, T/C [18]: 37.4%; viability, T/C [21]: 67.9%; viability, T/C [22]: 48.1%; viability, T/C [23]: 37.6%; viability, T/C [24]: 33%; viability, T/C [27]: 7.81%; viability, T/C [28]: 4.62%; viability, T/C [29]: 3.56%; viability, T/C [30]: 7.82%
COc1cccc2c1C(=O)c1c(O)c3c(c(O)c1C2=O)CC(O)(C(=O)CO)CC3OC1CC(N)C(O)C(C)O1 (stereo not given) + Cc1cncc(-c2nc(NCCc3c[nH]c4ccccc34)c3ncn(C(C)C)c3n2)c1	310 nM	240 nM	241 nM	< 31.6 nM	< 31.6 nM	63.7%	54.8%	49%	27.9%	61.8%	54%	47.3%	26.9%	55.4%	51.6%	48.2%	42.7%	42.8%	5.12%	5.58%	viability, T/C [5]: 1.4%; viability, T/C [6]: 1.85%; viability, T/C [11]: 2.85%; viability, T/C [12]: 1.79%; viability, T/C [16]: 24.3%; viability, T/C [17]: 1.27%; viability, T/C [18]: 1.8%; viability, T/C [21]: 39.3%; viability, T/C [22]: 19.3%; viability, T/C [23]: 1.16%; viability, T/C [24]: 1.68%; viability, T/C [27]: 13.1%; viability, T/C [28]: 4.16%; viability, T/C [29]: 1.37%; viability, T/C [30]: 1.89%
Nc1ncn(C2CC(O)C(CO)O2)c(=O)n1 (stereo not given) + Cc1cncc(-c2nc(NCCc3c[nH]c4ccccc34)c3ncn(C(C)C)c3n2)c1	> 1000 nM	> 1000 nM	> 1000 nM	> 1000 nM	< 3.16 nM	87.6%	80.7%	69%	62.7%	90%	74.8%	65.5%	59%	85.4%	78.3%	61.5%	70.4%	64%	8.47%	8.64%	viability, T/C [31]: 98.3%; viability, T/C [32]: 94.2%; viability, T/C [33]: 93.8%; viability, T/C [34]: 91.7%; viability, T/C [35]: 96.2%; viability, T/C [36]: 85.5%; viability, T/C [16]: 61.8%; viability, T/C [37]: 79.8%; viability, T/C [38]: 77.8%; viability, T/C [21]: 59.8%; viability, T/C [22]: 51.2%; viability, T/C [39]: 10.4%; viability, T/C [40]: 10.1%; viability, T/C [27]: 8.49%; viability, T/C [28]: 11.6%
